Experimental data from ChEMBL document CHEMBL1275254 (2010).

System: Burkholderia pseudomallei
Assay: Antimicrobial activity against Burkholderia pseudomallei Bp227 harboring deleted (bpeAB-oprA)::FRT gene after 24 hrs by broth microdilution method
Assay type: functional

In the case of GENTAMICIN, the MIC was 256 µg/mL.
